# Measured values taken from article PMC4033315 (Journal of medicinal chemistry, 2013).
# How the values were obtained:
# α9α10 nAChR [1] = target: α9α10 nAChR (Rattus norvegicus, UniProt P43144+Q9JLB5); type: cell-based
# α3β2 nAChR [2] = target: α3β2 nAChR (Rattus norvegicus, UniProt P04757+P12390); type: cell-based
# α2β2 nAChR = α2β2 nAChR (Rattus norvegicus, UniProt P12389+P12390); type: cell-based
# α4β4 nAChR = α4β4 nAChR (Rattus norvegicus, UniProt P09483+P12392); type: cell-based
# α7 nAChR = α7 nAChR (Rattus norvegicus, UniProt Q05941); type: cell-based
# Chain of α7 nAChR (Q05941 23-502 limits assumed): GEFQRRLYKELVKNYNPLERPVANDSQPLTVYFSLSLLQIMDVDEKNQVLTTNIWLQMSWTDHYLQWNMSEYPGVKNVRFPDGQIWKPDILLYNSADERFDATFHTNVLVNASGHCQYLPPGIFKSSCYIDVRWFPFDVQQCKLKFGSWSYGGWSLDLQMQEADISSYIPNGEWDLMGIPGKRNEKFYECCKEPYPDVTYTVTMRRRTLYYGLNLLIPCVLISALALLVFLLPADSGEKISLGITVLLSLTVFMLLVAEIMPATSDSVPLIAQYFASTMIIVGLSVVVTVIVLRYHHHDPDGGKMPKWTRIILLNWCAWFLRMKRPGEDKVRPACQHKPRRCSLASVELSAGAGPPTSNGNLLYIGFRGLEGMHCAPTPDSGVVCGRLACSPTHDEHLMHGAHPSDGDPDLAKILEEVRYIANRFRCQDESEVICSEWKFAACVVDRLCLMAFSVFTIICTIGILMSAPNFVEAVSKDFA
# [3] = target: α6/α3β2β3 nAChR (α6/α3 chimera) (Rattus norvegicus, UniProt P04757+P12390+P12391+P43143); type: cell-based
# α4β2 nAChR = α4β2 nAChR (Rattus norvegicus, UniProt P09483+P12390); type: cell-based
# Chain of α4β2 nAChR (P09483 31-630 limits assumed): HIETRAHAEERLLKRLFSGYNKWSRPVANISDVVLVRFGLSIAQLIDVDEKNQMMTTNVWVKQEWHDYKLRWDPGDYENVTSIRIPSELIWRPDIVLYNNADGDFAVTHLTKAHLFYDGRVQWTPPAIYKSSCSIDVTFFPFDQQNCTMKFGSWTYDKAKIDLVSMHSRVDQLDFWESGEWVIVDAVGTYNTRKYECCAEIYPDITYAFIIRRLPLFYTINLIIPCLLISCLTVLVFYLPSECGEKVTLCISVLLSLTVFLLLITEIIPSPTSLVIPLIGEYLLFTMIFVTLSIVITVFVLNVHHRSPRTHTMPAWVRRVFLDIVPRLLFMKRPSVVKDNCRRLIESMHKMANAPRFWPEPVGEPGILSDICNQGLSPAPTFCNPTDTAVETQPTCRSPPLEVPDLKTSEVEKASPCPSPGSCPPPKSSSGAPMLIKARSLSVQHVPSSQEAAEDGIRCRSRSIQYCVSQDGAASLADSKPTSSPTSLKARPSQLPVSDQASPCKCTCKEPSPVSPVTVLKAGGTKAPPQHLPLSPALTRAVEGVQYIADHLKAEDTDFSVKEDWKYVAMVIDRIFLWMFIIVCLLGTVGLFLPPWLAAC
# Chain of α4β2 nAChR (P12390 25-500 limits assumed): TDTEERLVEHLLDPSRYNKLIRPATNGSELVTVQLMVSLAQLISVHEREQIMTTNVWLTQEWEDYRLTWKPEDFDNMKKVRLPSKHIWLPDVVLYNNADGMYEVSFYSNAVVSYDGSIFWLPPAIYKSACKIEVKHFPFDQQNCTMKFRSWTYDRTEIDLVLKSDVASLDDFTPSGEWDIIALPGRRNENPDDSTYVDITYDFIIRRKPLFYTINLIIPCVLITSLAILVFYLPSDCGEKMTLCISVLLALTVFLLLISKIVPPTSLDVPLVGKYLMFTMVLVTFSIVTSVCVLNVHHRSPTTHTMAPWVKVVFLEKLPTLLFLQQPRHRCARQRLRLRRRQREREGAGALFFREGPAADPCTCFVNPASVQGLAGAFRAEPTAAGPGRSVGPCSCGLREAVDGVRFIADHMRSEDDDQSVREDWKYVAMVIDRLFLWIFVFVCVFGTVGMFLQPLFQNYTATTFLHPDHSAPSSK
# α6/α3β2β3 nAChR = settings: cited from earlier work
# α9α10 nAChR [4] = settings: cited from earlier work
# α3β2 nAChR [5] = settings: cited from earlier work
# α6/α3β4 nAChR = settings: cited from earlier work
# Chain of α4β4 nAChR (P09483 31-630 limits assumed): as the sequence (P09483 31-630 limits assumed) above
# Chain of α4β4 nAChR (P12392 22-495 limits assumed): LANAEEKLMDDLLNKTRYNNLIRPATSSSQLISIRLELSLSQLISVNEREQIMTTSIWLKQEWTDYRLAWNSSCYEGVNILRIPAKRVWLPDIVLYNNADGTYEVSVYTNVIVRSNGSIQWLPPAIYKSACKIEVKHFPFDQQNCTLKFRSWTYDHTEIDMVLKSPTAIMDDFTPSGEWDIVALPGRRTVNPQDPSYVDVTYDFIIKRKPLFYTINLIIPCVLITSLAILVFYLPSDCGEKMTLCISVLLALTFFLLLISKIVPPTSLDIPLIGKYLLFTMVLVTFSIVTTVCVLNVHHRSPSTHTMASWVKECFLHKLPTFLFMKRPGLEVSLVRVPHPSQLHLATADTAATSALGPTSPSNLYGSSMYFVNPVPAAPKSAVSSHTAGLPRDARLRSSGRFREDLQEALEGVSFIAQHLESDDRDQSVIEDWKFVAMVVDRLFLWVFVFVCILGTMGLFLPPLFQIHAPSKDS
# Chain of α9α10 nAChR (Rattus norvegicus, UniProt P43144+Q9JLB5) (P43144 26-479 limits assumed): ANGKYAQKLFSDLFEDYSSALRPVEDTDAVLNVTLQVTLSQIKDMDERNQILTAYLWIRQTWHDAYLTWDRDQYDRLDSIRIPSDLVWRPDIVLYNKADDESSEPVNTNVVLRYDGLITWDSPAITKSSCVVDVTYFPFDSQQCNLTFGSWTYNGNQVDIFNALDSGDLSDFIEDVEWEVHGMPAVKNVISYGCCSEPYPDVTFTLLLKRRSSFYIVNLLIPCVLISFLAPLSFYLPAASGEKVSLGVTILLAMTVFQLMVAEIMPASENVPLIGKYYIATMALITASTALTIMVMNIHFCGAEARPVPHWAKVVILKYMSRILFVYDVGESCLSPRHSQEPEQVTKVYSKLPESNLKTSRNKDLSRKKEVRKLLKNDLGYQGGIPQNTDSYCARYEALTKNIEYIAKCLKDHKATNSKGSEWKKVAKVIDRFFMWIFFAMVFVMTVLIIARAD
# Chain of α9α10 nAChR (Rattus norvegicus, UniProt P43144+Q9JLB5) (Q9JLB5 25-447 limits assumed): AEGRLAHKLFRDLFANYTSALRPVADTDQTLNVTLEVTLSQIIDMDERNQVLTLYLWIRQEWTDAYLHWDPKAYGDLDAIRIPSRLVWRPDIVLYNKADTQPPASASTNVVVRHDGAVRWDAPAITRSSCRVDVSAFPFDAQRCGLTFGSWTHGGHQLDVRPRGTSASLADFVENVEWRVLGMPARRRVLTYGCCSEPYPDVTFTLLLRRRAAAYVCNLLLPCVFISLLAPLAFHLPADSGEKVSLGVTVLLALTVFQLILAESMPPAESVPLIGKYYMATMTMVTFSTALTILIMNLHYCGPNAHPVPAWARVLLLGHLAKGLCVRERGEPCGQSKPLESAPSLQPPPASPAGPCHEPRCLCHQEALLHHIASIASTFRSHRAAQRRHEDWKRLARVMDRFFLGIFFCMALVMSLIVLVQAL
# Chain of α3β2 nAChR (Rattus norvegicus, UniProt P04757+P12390) (P04757 26-499 limits assumed): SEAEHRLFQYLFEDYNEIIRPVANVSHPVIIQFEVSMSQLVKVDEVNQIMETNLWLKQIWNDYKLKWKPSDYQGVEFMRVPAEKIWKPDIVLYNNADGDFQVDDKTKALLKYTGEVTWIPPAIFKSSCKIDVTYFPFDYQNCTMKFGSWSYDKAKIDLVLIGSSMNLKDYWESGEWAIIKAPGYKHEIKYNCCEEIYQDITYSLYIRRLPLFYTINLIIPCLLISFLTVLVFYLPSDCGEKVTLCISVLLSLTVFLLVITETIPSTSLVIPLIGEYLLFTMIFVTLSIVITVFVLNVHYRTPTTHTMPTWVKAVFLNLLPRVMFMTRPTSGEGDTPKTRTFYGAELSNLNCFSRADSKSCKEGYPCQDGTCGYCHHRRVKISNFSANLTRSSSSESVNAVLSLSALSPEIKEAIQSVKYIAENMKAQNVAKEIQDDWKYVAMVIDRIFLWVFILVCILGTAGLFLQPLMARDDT
# Chain of α3β2 nAChR (Rattus norvegicus, UniProt P04757+P12390) (P12390 25-500 limits assumed): as the sequence (P12390 25-500 limits assumed) above
# Chain of α2β2 nAChR (P12389 28-511 limits assumed): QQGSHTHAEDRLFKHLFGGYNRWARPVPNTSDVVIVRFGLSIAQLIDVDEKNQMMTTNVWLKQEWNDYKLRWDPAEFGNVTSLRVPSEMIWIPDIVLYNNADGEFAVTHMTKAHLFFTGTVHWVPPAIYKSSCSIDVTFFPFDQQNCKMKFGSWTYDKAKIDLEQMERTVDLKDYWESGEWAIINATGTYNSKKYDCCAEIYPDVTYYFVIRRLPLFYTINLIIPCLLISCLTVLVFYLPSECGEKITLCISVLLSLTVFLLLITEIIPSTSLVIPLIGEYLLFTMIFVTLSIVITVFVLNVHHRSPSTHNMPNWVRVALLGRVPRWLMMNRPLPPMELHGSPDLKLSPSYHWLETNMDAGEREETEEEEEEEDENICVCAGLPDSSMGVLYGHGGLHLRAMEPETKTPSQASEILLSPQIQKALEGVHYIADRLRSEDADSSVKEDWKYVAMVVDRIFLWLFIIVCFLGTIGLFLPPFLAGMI
# Chain of α2β2 nAChR (P12390 25-500 limits assumed): as the sequence (P12390 25-500 limits assumed) above
Molecule,block at 10^−5 M (α9α10 nAChR [1]),block of ACh-evoked currents (α9α10 nAChR [1]),block at 10^−5 M (α3β2 nAChR [2]),block of ACh-evoked currents (α3β2 nAChR [2]),block at 10^−5 M (α2β2 nAChR),block at 10^−5 M (α4β4 nAChR),block of ACh-evoked currents (α4β4 nAChR),block at 10^−5 M (α7 nAChR),block of ACh-evoked currents (α7 nAChR),block at 10^−5 M [3],block at 10^−5 M (α4β2 nAChR),IC50 (α6/α3β2β3 nAChR) [µM],IC50 (α9α10 nAChR [4]) [µM],IC50 (α3β2 nAChR [5]) [µM],IC50 (α6/α3β4 nAChR) [µM]
CC[C@H](C)[C@@H]1NC(=O)[C@@H]2CCCN2C(=O)[C@H](CO)NC(=O)[C@H](CCSC)NC(=O)[C@H](C)NC(=O)[C@H](CO)NC(=O)[C@@H]2CSSC[C@H](NC(=O)CN)C(=O)N[C@@H](CSSC[C@@H](C(N)=O)NC1=O)C(=O)N[C@@H](CO)C(=O)N[C@@H](Cc1c[nH]cn1)C(=O)N1CCC[C@H]1C(=O)N[C@@H](C(C)C)C(=O)N2 [TxID],"c less than 50% block at 10^−5 M. All receptors are rat except for α1β1δε, which is mouse.",no inhibition,"c less than 50% block at 10^−5 M. All receptors are rat except for α1β1δε, which is mouse.",no inhibition,"c less than 50% block at 10^−5 M. All receptors are rat except for α1β1δε, which is mouse.","c less than 50% block at 10^−5 M. All receptors are rat except for α1β1δε, which is mouse.",no inhibition,"c less than 50% block at 10^−5 M. All receptors are rat except for α1β1δε, which is mouse.",no inhibition,"c less than 50% block at 10^−5 M. All receptors are rat except for α1β1δε, which is mouse.","c less than 50% block at 10^−5 M. All receptors are rat except for α1β1δε, which is mouse.",,,,
Vc1.1,,,,,,,,,,,,0.14,0.019,7.3,0.98
